The term IC50 denotes the concentration that gives 50% inhibition. As usually defined, the EC50 is the midpoint of the concentration-response curve. A lower EC50 goes with higher potency in that assay. The term solubility denotes how much of the substance goes into solution per volume.

The structures appear in SMILES notation. Converted amounts (≈) assume the structure as drawn.

One data set has as its target T1, Glucocorticoid receptor (Homo sapiens, UniProt P04150).
T1 sequence (P04150 whole entry): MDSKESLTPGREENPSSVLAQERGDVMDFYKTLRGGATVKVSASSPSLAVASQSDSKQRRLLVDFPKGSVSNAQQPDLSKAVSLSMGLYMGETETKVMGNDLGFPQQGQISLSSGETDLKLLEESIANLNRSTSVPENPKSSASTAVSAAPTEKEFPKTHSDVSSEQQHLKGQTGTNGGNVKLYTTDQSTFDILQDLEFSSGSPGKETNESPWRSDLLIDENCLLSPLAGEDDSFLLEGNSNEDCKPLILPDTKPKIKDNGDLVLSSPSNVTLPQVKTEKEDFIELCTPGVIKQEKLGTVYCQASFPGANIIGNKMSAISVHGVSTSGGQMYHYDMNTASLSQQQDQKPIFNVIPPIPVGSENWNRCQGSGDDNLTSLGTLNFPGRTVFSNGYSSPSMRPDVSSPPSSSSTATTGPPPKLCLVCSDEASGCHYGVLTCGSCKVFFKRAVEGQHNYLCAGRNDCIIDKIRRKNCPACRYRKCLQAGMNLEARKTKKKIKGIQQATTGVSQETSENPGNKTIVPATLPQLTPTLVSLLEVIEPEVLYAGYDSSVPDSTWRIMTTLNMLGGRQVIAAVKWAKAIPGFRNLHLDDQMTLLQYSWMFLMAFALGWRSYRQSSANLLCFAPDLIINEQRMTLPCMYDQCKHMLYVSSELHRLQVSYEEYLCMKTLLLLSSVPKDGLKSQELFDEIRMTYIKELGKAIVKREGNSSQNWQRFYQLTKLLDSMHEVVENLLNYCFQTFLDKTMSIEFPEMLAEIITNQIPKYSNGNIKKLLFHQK
Details: not given
Take `CC[C@H](NC(=O)C(F)(F)F)[C@H](Oc1ccc(C#N)cc1Br)c1cnc(C2CC2)nc1`: the IC50 worked out at 0.0096 µM.

`Cc1ncccc1NC(=O)c1ccc2c(c1)CC[C@@H]1C[C@@](O)(C(F)(F)F)CC[C@@]21Cc1ccccc1` [DAGROCORAT] had an IC50 of 0.00069 µM.

The compound `C[C@H](NC(=O)C(F)(F)F)[C@H](Oc1ccc(C#N)cc1Br)c1cnc(C2CC2)nc1` gave an IC50 of 0.0025 µM.

The compound `N#Cc1ccc(O[C@H](c2cnc(C3CC3)nc2)[C@@H](NC(=O)C(F)(F)F)C2CC2)c(Br)c1` showed an IC50 of 0.021 µM.

Compound `CC(C)[C@H](NC(=O)C(F)(F)F)[C@H](Oc1ccc2c(cnn2-c2ccc(F)cc2)c1)c1ccccc1` registered an IC50 of less than 0.00042 µM.

Compound `CC(C)[C@H](NC(=O)C(C)(F)F)[C@H](Oc1ccc2c(cnn2-c2cc(F)c(=O)n(C)c2)c1)c1ccccc1` displayed a concentration for half-maximal inhibition (IC50) of 0.0056 µM.

As to `CC(C)[C@H](NC(=O)C(C)(F)F)[C@H](Oc1ccc2c(cnn2-c2ccns2)c1)c1ccccc1`, the IC50 was determined as 0.039 µM.

Regarding `CC(C)[C@H](NC(=O)C(C)(F)F)[C@H](Oc1ccc2c(cnn2-c2ccc(F)cc2)c1)c1ccccc1`, the 50% inhibitory concentration (IC50) was less than 0.00034 µM.

The subject of the next data set is Hepatocyte. The data set is described as follows: Stability in rat hepatocytes. It counts as ADME, cell-based.
Details: not given
Regarding `CC[C@H](NC(=O)C(F)(F)F)[C@H](Oc1ccc(C#N)cc1Br)c1cnc(C2CC2)nc1`, the Stability result was “Stable”.

With `C[C@H](NC(=O)C(F)(F)F)[C@H](Oc1ccc(C#N)cc1Br)c1cnc(C2CC2)nc1`, the Stability entry is given as “Stable”.

`N#Cc1ccc(O[C@H](c2cnc(C3CC3)nc2)[C@@H](NC(=O)C(F)(F)F)C2CC2)c(Br)c1`: the Stability result is “Stable”.

The next data set addresses T2, Glucocorticoid receptor (Homo sapiens) (UniProt P04150).
T2 sequence (whole entry): T1 sequence (P04150 whole entry)
Details: not given
Consider `Cc1ncccc1NC(=O)c1ccc2c(c1)CC[C@@H]1C[C@@](O)(C(F)(F)F)CC[C@@]21Cc1ccccc1` [DAGROCORAT], for which the fIC20 stood at 0.0667 nM.

In the case of `N#Cc1ccc(O[C@H](c2cnc(C3CC3)nc2)[C@@H](NC(=O)C(F)(F)F)C2CC2)c(Br)c1`, the fIC20 stood at 0.5 nM.

Another data set has as its target T1, Glucocorticoid receptor.
Details: not given
This is another data set of the same source.
`CC[C@H](NC(=O)C(F)(F)F)[C@H](Oc1ccc(C#N)cc1Br)c1cnc(C2CC2)nc1`: the midpoint of the response, the EC50, lay at 0.054 µM. This lies in the double-digit nanomolar range.

The compound `Cc1ncccc1NC(=O)c1ccc2c(c1)CC[C@@H]1C[C@@](O)(C(F)(F)F)CC[C@@]21Cc1ccccc1` [DAGROCORAT] showed an EC50 of 0.0048 µM.

Take `C[C@H](NC(=O)C(F)(F)F)[C@H](Oc1ccc(C#N)cc1Br)c1cnc(C2CC2)nc1`: the 50% effective concentration (EC50) stood at 0.023 µM. This EC50 lies about 4.8-fold higher than the previous one.

`CC(C)[C@H](NC(=O)C(F)(F)F)[C@H](Oc1ccc2c(cnn2-c2ccc(F)cc2)c1)c1ccccc1` gave an EC50 of 0.0054 µM.

The compound `CC(C)[C@H](NC(=O)C(C)(F)F)[C@H](Oc1ccc2c(cnn2-c2cc(F)c(=O)n(C)c2)c1)c1ccccc1` gave an EC50 of 0.018 µM.

`CC(C)[C@H](NC(=O)C(C)(F)F)[C@H](Oc1ccc2c(cnn2-c2ccc(F)cc2)c1)c1ccccc1` had an EC50 of 0.0039 µM.

The next data set has as its target T1, Glucocorticoid receptor. The data set is described as follows: Displacement of fluormone RED from human full length glucocorticoid receptor after 4 hrs by fluorescence polarization assay.
Details: not given
(In general: Fluorescence polarisation rises when a labelled molecule tumbles more slowly, as on binding a larger partner.)
`CC[C@H](NC(=O)C(F)(F)F)[C@H](Oc1ccc(C#N)cc1Br)c1cnc(C2CC2)nc1` had an IC50 of 0.0093 µM.

As for `Cc1ncccc1NC(=O)c1ccc2c(c1)CC[C@@H]1C[C@@](O)(C(F)(F)F)CC[C@@]21Cc1ccccc1` [DAGROCORAT], the IC50 is less than 0.0072 µM.

Compound `C[C@H](NC(=O)C(F)(F)F)[C@H](Oc1ccc(C#N)cc1Br)c1cnc(C2CC2)nc1` came in with an IC50 of 0.0024 µM.

`N#Cc1ccc(O[C@H](c2cnc(C3CC3)nc2)[C@@H](NC(=O)C(F)(F)F)C2CC2)c(Br)c1` had an IC50 of 0.014 µM.

On to `CC(C)[C@H](NC(=O)C(F)(F)F)[C@H](Oc1ccc2c(cnn2-c2ccc(F)cc2)c1)c1ccccc1`, for which the IC50 came out at 0.016 µM.

In the case of `CC(C)[C@H](NC(=O)C(C)(F)F)[C@H](Oc1ccc2c(cnn2-c2cc(F)c(=O)n(C)c2)c1)c1ccccc1`, the IC50 was less than 0.0032 µM.

Compound `CC(C)[C@H](NC(=O)C(C)(F)F)[C@H](Oc1ccc2c(cnn2-c2ccc(F)cc2)c1)c1ccccc1` displayed an IC50 of less than 0.014 µM.

A further data set deals with Hepatocyte. The data set is described as follows: Stability in human hepatocytes. It counts as ADME, cell-based.
Details: not given
For `CC[C@H](NC(=O)C(F)(F)F)[C@H](Oc1ccc(C#N)cc1Br)c1cnc(C2CC2)nc1`, the Stability entry is “Stable”.

Regarding `C[C@H](NC(=O)C(F)(F)F)[C@H](Oc1ccc(C#N)cc1Br)c1cnc(C2CC2)nc1`, the Stability result is given as “Stable”.

Regarding `N#Cc1ccc(O[C@H](c2cnc(C3CC3)nc2)[C@@H](NC(=O)C(F)(F)F)C2CC2)c(Br)c1`, the Stability result is recorded as “Stable”.

System in another data set: not listed separately
The data set is described as follows: Aqueous solubility of the compound. It counts as physicochemical. The following applies: aqueous; read-out: solubility.
For the compound `CC[C@H](NC(=O)C(F)(F)F)[C@H](Oc1ccc(C#N)cc1Br)c1cnc(C2CC2)nc1`, the solubility came out at 110 µM (≈ 53.2 µg/mL).

For the compound `Cc1ncccc1NC(=O)c1ccc2c(c1)CC[C@@H]1C[C@@](O)(C(F)(F)F)CC[C@@]21Cc1ccccc1` [DAGROCORAT], the solubility came to 3.2 µM (≈ 1.58 µg/mL).

As to `C[C@H](NC(=O)C(F)(F)F)[C@H](Oc1ccc(C#N)cc1Br)c1cnc(C2CC2)nc1`, the solubility was determined as 97 µM (≈ 45.5 µg/mL).

Regarding `N#Cc1ccc(O[C@H](c2cnc(C3CC3)nc2)[C@@H](NC(=O)C(F)(F)F)C2CC2)c(Br)c1`, the solubility was 86 µM (≈ 42.6 µg/mL).

`CC(C)[C@H](NC(=O)C(F)(F)F)[C@H](Oc1ccc2c(cnn2-c2ccc(F)cc2)c1)c1ccccc1`: the solubility was less than 0.1 µM.

On to `CC(C)[C@H](NC(=O)C(C)(F)F)[C@H](Oc1ccc2c(cnn2-c2cc(F)c(=O)n(C)c2)c1)c1ccccc1`, for which the solubility was 14 µM (≈ 7.18 µg/mL).

Take `CC(C)[C@H](NC(=O)C(C)(F)F)[C@H](Oc1ccc2c(cnn2-c2ccns2)c1)c1ccccc1`: the solubility came to 0.96 µM (≈ 0.452 µg/mL).

On to `CC(C)[C@H](NC(=O)C(C)(F)F)[C@H](Oc1ccc2c(cnn2-c2ccc(F)cc2)c1)c1ccccc1`, for which the solubility is less than 0.08 µM.

Another data set concerns the target T2, Glucocorticoid receptor (Homo sapiens).
Details: not given
The source holds these as a separate data set.
Take `Cc1ncccc1NC(=O)c1ccc2c(c1)CC[C@@H]1C[C@@](O)(C(F)(F)F)CC[C@@]21Cc1ccccc1` [DAGROCORAT]: the fIC30 came out at 2.3 nM.

For the compound `N#Cc1ccc(O[C@H](c2cnc(C3CC3)nc2)[C@@H](NC(=O)C(F)(F)F)C2CC2)c(Br)c1`, the fIC30 was 36 nM.

The next data set concerns the target T1, Glucocorticoid receptor. Description: Antagonist activity at glucocorticoid receptor (unknown origin) expressed in human ChaGoK1 cells assessed as inhibition of dexamethasone induced transactivation incubated for 24 hrs by beta-galactosidase reporter gene assay. The data set is classed as cell-based.
Details: not given
Background: In a reporter assay the amount or activity of a reporter protein is the signal.
Regarding `CC[C@H](NC(=O)C(F)(F)F)[C@H](Oc1ccc(C#N)cc1Br)c1cnc(C2CC2)nc1`, the half-inhibitory concentration (IC50) turned out to be 0.56 µM.

For `Cc1ncccc1NC(=O)c1ccc2c(c1)CC[C@@H]1C[C@@](O)(C(F)(F)F)CC[C@@]21Cc1ccccc1` [DAGROCORAT], the 50% inhibitory concentration (IC50) is 0.0089 µM.

On to `N#Cc1ccc(O[C@H](c2cnc(C3CC3)nc2)[C@@H](NC(=O)C(F)(F)F)C2CC2)c(Br)c1`, for which the IC50 stood at 0.221 µM.

Turning to `CC(C)[C@H](NC(=O)C(F)(F)F)[C@H](Oc1ccc2c(cnn2-c2ccc(F)cc2)c1)c1ccccc1`, the IC50 was determined as 0.025 µM.

Take `CC(C)[C@H](NC(=O)C(C)(F)F)[C@H](Oc1ccc2c(cnn2-c2cc(F)c(=O)n(C)c2)c1)c1ccccc1`: the IC50 came to 0.301 µM.

As to `CC(C)[C@H](NC(=O)C(C)(F)F)[C@H](Oc1ccc2c(cnn2-c2ccc(F)cc2)c1)c1ccccc1`, the IC50 is 0.013 µM.

Another data set has as its target T1, Glucocorticoid receptor.
Details: not given
The source holds these as a separate data set.
The compound `Cc1ncccc1NC(=O)c1ccc2c(c1)CC[C@@H]1C[C@@](O)(C(F)(F)F)CC[C@@]21Cc1ccccc1` [DAGROCORAT] displayed an IC50 of 0.035 µM.

Compound `N#Cc1ccc(O[C@H](c2cnc(C3CC3)nc2)[C@@H](NC(=O)C(F)(F)F)C2CC2)c(Br)c1` displayed an IC50 of 0.34 µM.

The next data set deals with T1, Glucocorticoid receptor. The following applies: blood.
Description: Therapeutic index, ratio of fIC20 for transrepression of GR in cryopreserved human fetal osteoblasts assessed as inhibition of OPG mRNA expression to fIC30 for transrepression of GR in human whole blood assessed as inhibition of LPS-induced TNF-alpha release
For `Cc1ncccc1NC(=O)c1ccc2c(c1)CC[C@@H]1C[C@@](O)(C(F)(F)F)CC[C@@]21Cc1ccccc1` [DAGROCORAT], the TI amounted to 0.029.

In turn, `N#Cc1ccc(O[C@H](c2cnc(C3CC3)nc2)[C@@H](NC(=O)C(F)(F)F)C2CC2)c(Br)c1` yielded a TI of 0.014.

The values above are taken from ChEMBL document CHEMBL4190372, “Discovery of a Novel Oral Glucocorticoid Receptor Modulator (AZD9567) with Improved Side Effect Profile” (J Med Chem, 2018).
